In ChEMBL document CHEMBL1201862, “PubChem BioAssay data set” (2004):
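Protocol summary: plate cells (96-well), add compound at 5 concentrations, incubate 48 h, interpolate endpoints linearly. GI50 is the concentration that inhibits growth by half.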 Activity calls are given as the source filed them. Cut-off read from the data, not from the text of the source: active = GI50 up to about 1.1 µM and inactive = higher.

What was measured:
Experiment in all cases: growth of human tumour cells (NCI), 48 h
SF-295 = test system: SF-295
SK-MEL-28 = test system: SK-MEL-28
HCT-116 = test system: HCT-116
HCT-15 = test system: HCT-15
A549 = test system: A549
MDA-MB-231 = test system: MDA-MB-231
MOLT-4 = test system: MOLT-4
T47D = test system: T47D
SR = test system: SR
UACC-62 = test system: UACC-62
SN12C = test system: SN12C
NCI/ADR-RES = test system: NCI/ADR-RES
NCI-H522 = test system: NCI-H522
HT-29 = test system: HT-29
M14 = test system: M14
K562 = test system: K562
HOP-92 = test system: HOP-92
BT-549 = test system: BT-549
MCF7 = test system: MCF7

Row | Compound | GI50 (SF-295) | GI50 (SK-MEL-28) | GI50 (HCT-116) | GI50 (HCT-15) | GI50 (A549) | GI50 (MDA-MB-231) | GI50 (MOLT-4) | GI50 (T47D) | GI50 (SR) | GI50 (UACC-62) | GI50 (SN12C) | GI50 (NCI/ADR-RES) | GI50 (NCI-H522) | GI50 (HT-29) | GI50 (M14) | GI50 (K562) | GI50 (HOP-92) | GI50 (BT-549) | GI50 (MCF7)
1 | Cc1cc(CC(O)(C(F)(F)F)C(F)(F)F)cc(CC(O)(C(F)(F)F)C(F)(F)F)n1 | 3.06 µM (inactive) | 3.03 µM (inactive) | 2.34 µM (inactive) | 4.08 µM | 3.3 µM (inactive) | 3.23 µM (inactive) | 3.24 µM (inactive) | 2.67 µM (inactive) | 4.08 µM (inactive) | 3.57 µM (inactive) | 3.1 µM (inactive) | 1.87 µM (inactive) | 2.36 µM (inactive) | 2.58 µM (inactive) | 3.71 µM (inactive) | 4.28 µM (inactive) | 2.55 µM (inactive) | – | –
2 | O=C1CCCC2=C1CC1=C(CCCC1=O)N2c1ccccc1 | – | > 100 µM (inactive) | – | > 100 µM | > 100 µM (inactive) | – | > 100 µM (inactive) | – | > 100 µM (inactive) | > 100 µM (inactive) | > 100 µM (inactive) | > 100 µM (inactive) | – | > 100 µM (inactive) | > 100 µM (inactive) | > 100 µM (inactive) | > 100 µM (inactive) | > 100 µM (inactive) | > 100 µM (inactive)
3 | CCN(CC)c1nc(N(C)C)c2cc(OC)ccc2n1 | 26.7 µM (inactive) | 28.3 µM (inactive) | 11.2 µM (inactive) | 30.6 µM | 27.9 µM (inactive) | 35.5 µM (inactive) | 18.5 µM (inactive) | – | 21.9 µM (inactive) | 25.8 µM (inactive) | 22.2 µM (inactive) | 24.1 µM (inactive) | 14.6 µM (inactive) | 10.2 µM (inactive) | 22.7 µM (inactive) | 20.8 µM (inactive) | 24.2 µM (inactive) | 56.4 µM (inactive) | 22.2 µM (inactive)
4 | COc1ccc(/C(Br)=C2\OC(=O)c3ccccc32)cc1 | > 10 µM (inactive) | > 10 µM (inactive) | > 10 µM (inactive) | > 10 µM | > 10 µM (inactive) | > 10 µM (inactive) | > 10 µM (inactive) | > 10 µM (inactive) | > 10 µM (inactive) | > 10 µM (inactive) | > 10 µM (inactive) | > 10 µM (inactive) | > 10 µM (inactive) | > 10 µM (inactive) | > 10 µM (inactive) | > 10 µM (inactive) | > 10 µM (inactive) | – | > 10 µM (inactive)
